# Columns and labels:
# [1] = target: T1, Human δ-opioid (DOP) (Homo sapiens, UniProt P41143); experiment: Radioligand binding, human δ-opioid (DOP) membranes, FlashPlate, [3H]-Bremazocine; details: compound at 10 μM, [3H]-Bremazocine; for A1: inhibition of radioligand binding: FlashPlate
# T1 construct: purchased Perkin Elmer Biosignal
# Summary of the method: (§1)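 Cloned human receptor membranes were coated onto FlashPlate wells and incubated with radioligand and compound (added from a 0.5 mM DMSO daughter plate) for 1 hour at room temperature in the dark. Scintillation counting gave percent inhibition, with DMSO defining total and reference ligand defining non-specific binding.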
# [2] = target: T2, Human κ-Opioid (KOP) (Homo sapiens, UniProt P41145); experiment: Radioligand binding, human κ-opioid (KOP) membranes, filtration, [3H]-Diprenorphine; details: compound at 10 μM, [3H]-Diprenorphine; for A2: inhibition of radioligand binding: filtration
# T2 construct: purchased Perkin Elmer Biosignal
# Summary of the method: (§2)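 Filtration binding on cloned human receptor membranes (1 Unit/well), [125I]-Substance P for NK1 and [3H]-Diprenorphine for KOP, 1 h at room temperature. Filters PEI-presoaked, washed with cold 50 mM Tris-HCl pH 7.4, counted by scintillation; percent inhibition calculated, reference ligand defining non-specific binding.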
# [3] = target: T3, Human Melanocortin (MC3) (Homo sapiens, UniProt P41968); experiment: Radioligand binding, human melanocortin MC3 membranes, FlashPlate, [125I]-NDP-αMSH; details: compound at 10 μM, [125I]-NDP-αMSH; for A3: inhibition of radioligand binding: FlashPlate
# T3 construct: purchased Perkin Elmer Biosignal
# Summary of the method: as §1
# [4] = target: T4, Human Melanocortin (MC4) (Homo sapiens, UniProt P32245); experiment: Radioligand binding, human melanocortin MC4 membranes, FlashPlate, [125I]-NDP-αMSH; details: compound at 10 μM, [125I]-NDP-αMSH; for A4: inhibition of radioligand binding: FlashPlate
# T4 construct: purchased Perkin Elmer Biosignal
# Summary of the method: as §1
# [5] = target: T5, Human melanocortin (MC5) (Homo sapiens, UniProt P33032); experiment: Radioligand binding, human melanocortin MC5 membranes, FlashPlate, [125I]-NDP-αMSH; details: compound at 10 μM, [125I]-NDP-αMSH; for A5: inhibition of radioligand binding: FlashPlate
# T5 construct: purchased Perkin Elmer Biosignal
# Summary of the method: as §1
# [6] = target: T6, Human melanin-concentrating hormone (MCH1) (Homo sapiens, UniProt Q99705); experiment: Radioligand binding, human melanin-concentrating hormone MCH1 membranes, FlashPlate, [125I]-S36057; details: compound at 10 μM; for A6: inhibition of radioligand binding: [125I]-S36057, FlashPlate
# T6 construct: purchased Perkin Elmer Biosignal
# Summary of the method: as §1
# [7] = target: T7, Human μ-opioid (MOP) (Homo sapiens, UniProt P35372); experiment: Radioligand binding, human μ-opioid (MOP) membranes, FlashPlate, [3H]-Naloxone; details: compound at 10 μM, [3H]-Naloxone; for A7: inhibition of radioligand binding: FlashPlate
# T7 construct: purchased Perkin Elmer Biosignal
# Summary of the method: as §1
# [8] = target: T8, Human neurokinin (NK1) (Homo sapiens, UniProt P25103); experiment: Radioligand binding, human neurokinin NK1 membranes, filtration, [125I]-Substance P; details: compound at 10 μM, [125I]-Substance P; for A8: inhibition of radioligand binding: filtration
# T8 construct: purchased Perkin Elmer Biosignal
# Summary of the method: as §2
# [9] = target: T9, Human neuropeptide Y (NPY-Y1) (Homo sapiens, UniProt P25929); experiment: Radioligand binding, human neuropeptide Y NPY-Y1 membranes, FlashPlate, [125I]-PYY; details: compound at 10 μM, [125I]-PYY; for A9: inhibition of radioligand binding: FlashPlate
# T9 construct: purchased Perkin Elmer Biosignal
# T9 sequence (P25929 1-384): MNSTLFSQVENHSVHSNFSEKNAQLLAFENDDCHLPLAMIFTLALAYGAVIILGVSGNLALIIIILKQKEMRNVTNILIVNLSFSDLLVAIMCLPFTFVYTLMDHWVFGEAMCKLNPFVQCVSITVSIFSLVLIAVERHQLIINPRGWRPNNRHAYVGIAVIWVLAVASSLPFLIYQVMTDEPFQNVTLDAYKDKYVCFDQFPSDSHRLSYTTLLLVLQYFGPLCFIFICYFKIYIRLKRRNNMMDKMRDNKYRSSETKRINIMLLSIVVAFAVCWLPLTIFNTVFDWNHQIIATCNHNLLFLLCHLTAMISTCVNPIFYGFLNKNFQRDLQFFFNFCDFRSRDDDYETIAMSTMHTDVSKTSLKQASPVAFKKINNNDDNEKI
# Summary of the method: as §1
# [10] = target: T10, Human opioid (ORL1) (Homo sapiens, UniProt P41146); experiment: Radioligand binding, human opioid ORL1 membranes, FlashPlate, [125I]-Nociceptin; details: compound at 10 μM, [125I]-Nociceptin; for A10: inhibition of radioligand binding: FlashPlate
# T10 construct: purchased Perkin Elmer Biosignal
# Summary of the method: as §1
# [11] = target: T11, Mouse urotensin (mUR2) (Mus musculus, UniProt Q8VIH9); experiment: Radioligand binding, mouse urotensin mUR2 membranes, FlashPlate, [125I]-Urotensin II; details: compound at 10 μM, [125I]-Urotensin II; for A11: inhibition of radioligand binding: FlashPlate
# T11 construct: purchased Perkin Elmer Biosignal
# T11 sequence (Q8VIH9 1-385): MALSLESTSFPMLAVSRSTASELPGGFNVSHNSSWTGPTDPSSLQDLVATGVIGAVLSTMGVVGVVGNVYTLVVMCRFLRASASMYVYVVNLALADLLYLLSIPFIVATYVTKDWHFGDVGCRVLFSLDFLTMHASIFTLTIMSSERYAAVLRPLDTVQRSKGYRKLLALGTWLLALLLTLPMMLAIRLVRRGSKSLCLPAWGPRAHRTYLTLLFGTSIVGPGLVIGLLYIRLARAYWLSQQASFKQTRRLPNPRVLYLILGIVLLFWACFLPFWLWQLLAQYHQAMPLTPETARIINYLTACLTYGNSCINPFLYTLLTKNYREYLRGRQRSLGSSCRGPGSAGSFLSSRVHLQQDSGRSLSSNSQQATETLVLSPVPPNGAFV
# Summary of the method: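 Cloned mouse urotensin (mUR2) receptor membranes from Perkin Elmer Biosignal were immobilized in FlashPlate microplates using a proprietary coating. Each well got 19.5 μl buffer, then 0.5 μl of DMSO, reference ligand, or compound. Adding 5 μl of [125I]-Urotensin II, diluted to 5× final concentration in binding buffer, started binding. Plates were sealed with TopSeal-A and incubated 1 hour at room temperature in the dark. Wells were counted for 30 seconds each on a TopCount after a 60-second delay, and percentage inhibition was calculated.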
# T5 sequence (P33032 whole entry): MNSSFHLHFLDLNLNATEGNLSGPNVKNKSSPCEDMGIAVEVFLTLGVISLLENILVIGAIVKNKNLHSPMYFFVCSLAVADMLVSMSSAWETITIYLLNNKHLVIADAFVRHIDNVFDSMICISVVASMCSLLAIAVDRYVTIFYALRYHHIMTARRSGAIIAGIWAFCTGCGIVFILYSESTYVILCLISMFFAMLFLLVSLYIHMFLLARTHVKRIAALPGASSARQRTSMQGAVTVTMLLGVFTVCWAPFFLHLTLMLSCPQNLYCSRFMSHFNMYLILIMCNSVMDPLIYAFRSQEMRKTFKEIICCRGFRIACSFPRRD
# T2 sequence (P41145 whole entry): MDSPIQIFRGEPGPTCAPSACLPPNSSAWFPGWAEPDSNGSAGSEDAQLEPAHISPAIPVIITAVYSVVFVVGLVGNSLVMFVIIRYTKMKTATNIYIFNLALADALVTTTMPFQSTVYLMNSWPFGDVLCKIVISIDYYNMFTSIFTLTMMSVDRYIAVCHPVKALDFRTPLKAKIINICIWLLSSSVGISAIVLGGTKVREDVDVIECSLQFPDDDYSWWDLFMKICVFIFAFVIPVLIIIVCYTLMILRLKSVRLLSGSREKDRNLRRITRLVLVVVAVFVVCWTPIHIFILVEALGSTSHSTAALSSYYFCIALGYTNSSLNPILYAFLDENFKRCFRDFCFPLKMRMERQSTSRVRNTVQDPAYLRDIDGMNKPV
# T4 sequence (P32245 whole entry): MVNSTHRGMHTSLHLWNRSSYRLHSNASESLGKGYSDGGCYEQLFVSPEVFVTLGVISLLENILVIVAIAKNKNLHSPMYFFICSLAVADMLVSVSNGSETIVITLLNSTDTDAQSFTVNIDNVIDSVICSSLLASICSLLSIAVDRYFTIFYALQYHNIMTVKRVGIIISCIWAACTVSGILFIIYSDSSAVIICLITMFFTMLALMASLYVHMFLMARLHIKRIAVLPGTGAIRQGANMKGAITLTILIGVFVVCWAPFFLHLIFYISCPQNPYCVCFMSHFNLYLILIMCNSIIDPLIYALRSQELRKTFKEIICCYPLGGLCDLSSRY
# T6 sequence (Q99705 whole entry): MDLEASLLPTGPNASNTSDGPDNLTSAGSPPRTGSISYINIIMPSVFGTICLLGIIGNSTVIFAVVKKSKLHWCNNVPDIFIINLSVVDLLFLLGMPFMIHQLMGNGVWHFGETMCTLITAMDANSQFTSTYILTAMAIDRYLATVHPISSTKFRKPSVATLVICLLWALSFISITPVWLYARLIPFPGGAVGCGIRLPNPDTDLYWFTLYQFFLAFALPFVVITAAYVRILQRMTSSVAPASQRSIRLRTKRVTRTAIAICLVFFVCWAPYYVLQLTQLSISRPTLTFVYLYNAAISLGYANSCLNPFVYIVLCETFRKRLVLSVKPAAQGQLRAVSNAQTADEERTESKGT
# T10 sequence (P41146 whole entry): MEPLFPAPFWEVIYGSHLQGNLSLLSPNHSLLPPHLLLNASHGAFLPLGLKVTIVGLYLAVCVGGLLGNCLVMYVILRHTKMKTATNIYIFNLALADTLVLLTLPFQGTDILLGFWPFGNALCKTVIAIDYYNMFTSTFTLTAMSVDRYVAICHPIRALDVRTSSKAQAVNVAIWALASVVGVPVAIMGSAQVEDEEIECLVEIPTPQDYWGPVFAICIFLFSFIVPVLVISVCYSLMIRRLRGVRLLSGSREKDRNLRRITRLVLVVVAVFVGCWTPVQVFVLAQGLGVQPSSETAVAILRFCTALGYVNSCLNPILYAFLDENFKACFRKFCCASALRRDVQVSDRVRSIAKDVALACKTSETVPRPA
# T7 sequence (P35372 whole entry): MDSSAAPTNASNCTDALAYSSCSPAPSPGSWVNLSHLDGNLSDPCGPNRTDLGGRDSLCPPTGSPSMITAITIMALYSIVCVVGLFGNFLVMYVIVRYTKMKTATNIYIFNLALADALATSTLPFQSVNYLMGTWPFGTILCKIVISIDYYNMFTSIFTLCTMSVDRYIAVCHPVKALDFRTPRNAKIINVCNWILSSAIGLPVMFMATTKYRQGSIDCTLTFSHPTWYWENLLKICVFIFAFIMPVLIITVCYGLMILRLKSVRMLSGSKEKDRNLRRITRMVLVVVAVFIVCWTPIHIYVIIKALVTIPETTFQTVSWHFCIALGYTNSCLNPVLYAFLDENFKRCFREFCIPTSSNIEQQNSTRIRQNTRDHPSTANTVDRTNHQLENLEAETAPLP
# T1 sequence (P41143 whole entry): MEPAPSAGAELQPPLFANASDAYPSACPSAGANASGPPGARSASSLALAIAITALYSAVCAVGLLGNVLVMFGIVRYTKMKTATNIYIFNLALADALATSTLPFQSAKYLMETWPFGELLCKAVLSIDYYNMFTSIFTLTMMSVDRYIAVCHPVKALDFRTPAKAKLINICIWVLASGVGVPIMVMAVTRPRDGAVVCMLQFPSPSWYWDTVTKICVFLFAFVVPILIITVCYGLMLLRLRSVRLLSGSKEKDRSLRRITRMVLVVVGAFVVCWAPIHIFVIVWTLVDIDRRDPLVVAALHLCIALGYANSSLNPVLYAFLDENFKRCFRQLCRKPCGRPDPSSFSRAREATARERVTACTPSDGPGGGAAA
# T3 sequence (P41968 whole entry): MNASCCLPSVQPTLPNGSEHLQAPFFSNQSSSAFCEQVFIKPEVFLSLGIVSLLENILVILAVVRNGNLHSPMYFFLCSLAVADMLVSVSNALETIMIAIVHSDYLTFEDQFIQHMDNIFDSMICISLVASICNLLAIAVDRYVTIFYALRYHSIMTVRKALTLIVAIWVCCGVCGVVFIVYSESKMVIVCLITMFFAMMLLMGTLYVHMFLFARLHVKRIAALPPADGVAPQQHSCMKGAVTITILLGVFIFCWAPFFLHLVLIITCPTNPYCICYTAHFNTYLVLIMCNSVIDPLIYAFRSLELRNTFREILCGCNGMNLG
# T8 sequence (P25103 whole entry): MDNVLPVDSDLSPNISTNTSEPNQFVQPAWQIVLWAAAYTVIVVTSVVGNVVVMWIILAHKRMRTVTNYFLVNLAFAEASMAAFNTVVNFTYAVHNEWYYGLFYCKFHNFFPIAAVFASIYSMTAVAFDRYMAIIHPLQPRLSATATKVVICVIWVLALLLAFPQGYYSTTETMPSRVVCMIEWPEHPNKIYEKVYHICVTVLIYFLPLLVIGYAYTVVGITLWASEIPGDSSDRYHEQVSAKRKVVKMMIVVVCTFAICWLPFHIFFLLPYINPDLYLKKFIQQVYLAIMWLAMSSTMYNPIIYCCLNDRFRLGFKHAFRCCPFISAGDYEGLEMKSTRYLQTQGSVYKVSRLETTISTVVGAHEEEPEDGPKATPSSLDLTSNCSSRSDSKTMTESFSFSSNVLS
compound,measurement,setting,value
COCC1OC(OCCc2ccccc2)C(NC(=O)CCCNC(=N)N)C(OCc2ccc(Cl)cc2)C1O (stereo not drawn) [compound 223],A1: inhibition of radioligand binding,[1],− (“−” indicates less than 50% inhibition at 10 μM)
same,A2: inhibition of radioligand binding,[2],− (“−” indicates less than 50% inhibition at 10 μM)
same,A3: inhibition of radioligand binding,[3],− (“−” indicates less than 50% inhibition at 10 μM)
same,A4: inhibition of radioligand binding,[4],+ (“+” indicates greater than 50% inhibition at 10 μM)
same,A5: inhibition of radioligand binding,[5],+ (“+” indicates greater than 50% inhibition at 10 μM)
same,A6: inhibition of radioligand binding,[6],+ (“+” indicates greater than 50% inhibition at 10 μM)
same,A7: inhibition of radioligand binding,[7],− (“−” indicates less than 50% inhibition at 10 μM)
same,A8: inhibition of radioligand binding,[8],+ (“+” indicates greater than 50% inhibition at 10 μM)
same,A9: inhibition of radioligand binding,[9],− (“−” indicates less than 50% inhibition at 10 μM)
same,A10: inhibition of radioligand binding,[10],− (“−” indicates less than 50% inhibition at 10 μM)
same,A11: inhibition of radioligand binding,[11],− (“−” indicates less than 50% inhibition at 10 μM)
COCC1OC(OCc2ccc(Cl)cc2)C(NC(=O)CNC(=N)N)C(OCc2ccc3ccccc3c2)C1O (stereo not drawn) [compound 209],A1: inhibition of radioligand binding,[1],− (“−” indicates less than 50% inhibition at 10 μM)
same,A2: inhibition of radioligand binding,[2],− (“−” indicates less than 50% inhibition at 10 μM)
same,A3: inhibition of radioligand binding,[3],+ (“+” indicates greater than 50% inhibition at 10 μM)
same,A4: inhibition of radioligand binding,[4],+ (“+” indicates greater than 50% inhibition at 10 μM)
same,A5: inhibition of radioligand binding,[5],+ (“+” indicates greater than 50% inhibition at 10 μM)
same,A6: inhibition of radioligand binding,[6],− (“−” indicates less than 50% inhibition at 10 μM)
same,A7: inhibition of radioligand binding,[7],− (“−” indicates less than 50% inhibition at 10 μM)
same,A8: inhibition of radioligand binding,[8],+ (“+” indicates greater than 50% inhibition at 10 μM)
same,A9: inhibition of radioligand binding,[9],− (“−” indicates less than 50% inhibition at 10 μM)
same,A10: inhibition of radioligand binding,[10],− (“−” indicates less than 50% inhibition at 10 μM)
same,A11: inhibition of radioligand binding,[11],− (“−” indicates less than 50% inhibition at 10 μM)
NCCC(=O)NC1C(OCc2ccccc2)OC(COCc2ccc(Cl)cc2)C(O)C1OCc1ccc2ccccc2c1 (stereo not drawn) [compound 368],"A1: inhibition of radioligand binding, human δ-opioid (DOP)",[1],− (“−” indicates less than 50% inhibition at 10 μM)
same,"A2: inhibition of radioligand binding, human κ-opioid (KOP)",[2],− (“−” indicates less than 50% inhibition at 10 μM)
same,"A3: inhibition of radioligand binding, human melanocortin (MC3)",[3],+ (“+” indicates greater than 50% inhibition at 10 μM)
same,"A4: inhibition of radioligand binding, human melanocortin (MC4)",[4],+ (“+” indicates greater than 50% inhibition at 10 μM)
same,"A5: inhibition of radioligand binding, human melanocortin (MC5)",[5],+ (“+” indicates greater than 50% inhibition at 10 μM)
same,"A6: inhibition of radioligand binding, human melanin-concentrating hormone (MCH1)",[6]; [125I]-S36057,− (“−” indicates less than 50% inhibition at 10 μM)
same,"A7: inhibition of radioligand binding, human μ-opioid (MOP)",[7],− (“−” indicates less than 50% inhibition at 10 μM)
same,"A8: inhibition of radioligand binding, human neurokinin (NK1)",[8],+ (“+” indicates greater than 50% inhibition at 10 μM)
same,"A9: inhibition of radioligand binding, human neuropeptide Y (NPY-Y1)",[9],− (“−” indicates less than 50% inhibition at 10 μM)
same,"A10: inhibition of radioligand binding, human opioid (ORL1)",[10],− (“−” indicates less than 50% inhibition at 10 μM)
same,"A11: inhibition of radioligand binding, mouse urotensin (mUR2)",[11],− (“−” indicates less than 50% inhibition at 10 μM)
